Legend:
[1] = target: T1, Human immunodeficiency virus type 1 integrase (Human immunodeficiency virus 1, UniProt Q7ZJM1); assay: Concentration required for inhibition of HIV-1 integrase mediated strand transfer
[2] = target: T1, Human immunodeficiency virus type 1 integrase; assay: Concentration required for inhibition of HIV-1 integrase mediated 3'-end processing

T1 sequence (Q7ZJM1 whole entry): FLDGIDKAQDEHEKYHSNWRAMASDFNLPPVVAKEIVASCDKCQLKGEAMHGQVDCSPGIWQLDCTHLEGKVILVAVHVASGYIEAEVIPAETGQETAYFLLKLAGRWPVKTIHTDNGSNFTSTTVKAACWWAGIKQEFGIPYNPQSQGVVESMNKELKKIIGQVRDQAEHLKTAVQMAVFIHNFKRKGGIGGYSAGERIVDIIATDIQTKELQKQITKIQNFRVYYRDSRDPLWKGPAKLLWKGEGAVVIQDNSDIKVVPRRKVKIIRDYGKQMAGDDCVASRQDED

CC[C@H](C)[C@H](N)C(=O)N[C@@H](CC(C)C)C(=O)N1CCC[C@H]1C(=O)N[C@@H](Cc1c[nH]c2ccccc12)C(=O)N[C@@H](CCCCN)C(=O)N[C@@H](Cc1c[nH]c2ccccc12)C(=O)N1CCC[C@H]1C(=O)N[C@@H](Cc1c[nH]c2ccccc12)C(=O)N[C@@H](Cc1c[nH]c2ccccc12)C(=O)N1CCC[C@H]1C(=O)N[C@@H](Cc1c[nH]c2ccccc12)C(=O)N1CCC[C@H]1C(=O)N1CCC[C@H]1C(=O)NCCCCC(NC(=O)[C@@H]1CCCN1C(=O)[C@@H]1CCCN1C(=O)[C@H](Cc1c[nH]c2ccccc12)NC(=O)[C@@H]1CCCN1C(=O)[C@H](Cc1c[nH]c2ccccc12)NC(=O)[C@H](Cc1c[nH]c2ccccc12)NC(=O)[C@@H]1CCCN1C(=O)[C@H](Cc1c[nH]c2ccccc12)NC(=O)[C@H](CCCCN)NC(=O)[C@H](Cc1c[nH]c2ccccc12)NC(=O)[C@@H]1CCCN1C(=O)[C@H](CC(C)C)NC(=O)[C@@H](N)[C@@H](C)CC)C(=O)NCCCCC(NC(=O)C(CCCCNC(=O)[C@@H]1CCCN1C(=O)[C@@H]1CCCN1C(=O)[C@H](Cc1c[nH]c2ccccc12)NC(=O)[C@@H]1CCCN1C(=O)[C@H](Cc1c[nH]c2ccccc12)NC(=O)[C@H](Cc1c[nH]c2ccccc12)NC(=O)[C@@H]1CCCN1C(=O)[C@H](Cc1c[nH]c2ccccc12)NC(=O)[C@H](CCCCN)NC(=O)[C@H](Cc1c[nH]c2ccccc12)NC(=O)[C@@H]1CCCN1C(=O)[C@H](CC(C)C)NC(=O)[C@H](N)[C@@H](C)CC)NC(=O)[C@@H]1CCCN1C(=O)[C@@H]1CCCN1C(=O)[C@H](Cc1c[nH]c2ccccc12)NC(=O)[C@@H]1CCCN1C(=O)[C@H](Cc1c[nH]c2ccccc12)NC(=O)[C@H](Cc1c[nH]c2ccccc12)NC(=O)[C@@H]1CCCN1C(=O)[C@H](Cc1c[nH]c2ccccc12)NC(=O)[C@H](CCCCN)NC(=O)[C@H](Cc1c[nH]c2ccccc12)NC(=O)[C@@H]1CCCN1C(=O)[C@H](CC(C)C)NC(=O)[C@@H](N)[C@@H](C)CC)C(N)=O (stereo not given in full)
IC50 [1]: 0.6 µM | IC50 [2]: 0.6 µM

CC[C@H](C)[C@@H](N)C(=O)N[C@H](CC(C)C)C(=O)N1CCC[C@@H]1C(=O)N[C@H](Cc1c[nH]c2ccccc12)C(=O)N[C@H](CCCCN)C(=O)N[C@H](Cc1c[nH]c2ccccc12)C(=O)N1CCC[C@@H]1C(=O)N[C@H](Cc1c[nH]c2ccccc12)C(=O)N[C@H](Cc1c[nH]c2ccccc12)C(=O)N1CCC[C@@H]1C(=O)N[C@H](Cc1c[nH]c2ccccc12)C(=O)N1CCC[C@@H]1C(=O)N1CCC[C@@H]1C(=O)NCCCCC(NC(=O)[C@H]1CCCN1C(=O)[C@H]1CCCN1C(=O)[C@@H](Cc1c[nH]c2ccccc12)NC(=O)[C@H]1CCCN1C(=O)[C@@H](Cc1c[nH]c2ccccc12)NC(=O)[C@@H](Cc1c[nH]c2ccccc12)NC(=O)[C@H]1CCCN1C(=O)[C@@H](Cc1c[nH]c2ccccc12)NC(=O)[C@@H](CCCCN)NC(=O)[C@@H](Cc1c[nH]c2ccccc12)NC(=O)[C@H]1CCCN1C(=O)[C@@H](CC(C)C)NC(=O)[C@H](N)[C@@H](C)CC)C(N)=O (stereo not given in full)
IC50 [1]: 2.3 µM | IC50 [2]: 2.3 µM

CC[C@H](C)[C@H](N)C(=O)N[C@@H](CC(C)C)C(=O)N1CCC[C@H]1C(=O)N[C@@H](Cc1c[nH]c2ccccc12)C(=O)NCC(=O)N[C@@H](Cc1c[nH]c2ccccc12)C(=O)N1CCC[C@H]1C(=O)N[C@@H](Cc1c[nH]c2ccccc12)C(=O)N[C@@H](Cc1c[nH]c2ccccc12)C(=O)N1CCC[C@H]1C(=O)N[C@@H](Cc1c[nH]c2ccccc12)C(=O)N[C@@H](CCCN=C(N)N)C(=O)N[C@@H](CCCN=C(N)N)C(N)=O
IC50 [1]: 19 µM | IC50 [2]: 49 µM

CC[C@H](C)[C@H](N)C(=O)N[C@@H](CC(C)C)C(=O)N1CCC[C@H]1C(=O)N[C@@H](Cc1c[nH]c2ccccc12)C(=O)N[C@@H](CCCCN)C(=O)N[C@@H](Cc1c[nH]c2ccccc12)C(=O)N1CCC[C@H]1C(=O)N[C@@H](Cc1c[nH]c2ccccc12)C(=O)N[C@@H](Cc1c[nH]c2ccccc12)C(=O)N1CCC[C@H]1C(=O)N[C@@H](Cc1c[nH]c2ccccc12)C(=O)N1CCC[C@H]1C(=O)N1CCC[C@H]1C(=O)NCCCCC(NC(=O)[C@@H]1CCCN1C(=O)[C@@H]1CCCN1C(=O)[C@H](Cc1c[nH]c2ccccc12)NC(=O)[C@@H]1CCCN1C(=O)[C@H](Cc1c[nH]c2ccccc12)NC(=O)[C@H](Cc1c[nH]c2ccccc12)NC(=O)[C@@H]1CCCN1C(=O)[C@H](Cc1c[nH]c2ccccc12)NC(=O)[C@H](CCCCN)NC(=O)[C@H](Cc1c[nH]c2ccccc12)NC(=O)[C@@H]1CCCN1C(=O)[C@H](CC(C)C)NC(=O)[C@@H](N)[C@@H](C)CC)C(N)=O (stereo not given in full)
IC50 [1]: 4.9 µM | IC50 [2]: 2.8 µM

CC[C@H](C)[C@H](N)C(=O)N[C@@H](CC(C)C)C(=O)N1CCC[C@H]1C(=O)N[C@@H](Cc1c[nH]c2ccccc12)C(=O)N[C@@H](CCCCN)C(=O)N[C@@H](Cc1c[nH]c2ccccc12)C(=O)N1CCC[C@H]1C(=O)N[C@@H](Cc1c[nH]c2ccccc12)C(=O)N[C@@H](Cc1c[nH]c2ccccc12)C(=O)N1CCC[C@H]1C(=O)N[C@@H](Cc1c[nH]c2ccccc12)C(=O)N[C@@H](CCCN=C(N)N)C(=O)N[C@@H](CCCN=C(N)N)C(N)=O [Indolicidin]
IC50 [1]: 57 µM | IC50 [2]: 60 µM

H-ILAWKWAWWAWPP-NH2
IC50 [1]: 41 µM | IC50 [2]: 54 µM

H-ILPWGWPWWPWPP-NH2
IC50 [1]: > 333 µM | IC50 [2]: > 333 µM

H-ILPWKWPWWPWP-NH2
IC50 [1]: 80 µM | IC50 [2]: 180 µM

H-ILPWKWPWWPWPP-NH2
IC50 [1]: 13 µM | IC50 [2]: 16 µM

H-LPWKWPWWPWPP-NH2
IC50 [1]: 215 µM | IC50 [2]: 185 µM

Reference: ChEMBL document CHEMBL1138028, “Synthesis and HIV-1 integrase inhibitory activity of dimeric and tetrameric analogs of indolicidin” (Bioorg Med Chem Lett, 2004)
